# Like-named read-outs stand apart in the source and are kept apart here.
# Tests used:
# [1] = biological target: T1, D1 (Homo sapiens, UniProt P21728); test: cell-based; format: cell-based
# T1 construct: purchased ICE Bioscience ICESTP™ SafetyOne44 Panel
# [2] = biological target: T2, Nav1.5 (Homo sapiens, UniProt Q14524); test: SafetyOne44 panel ion channels: Nav1.5; format: cell-based; details: Nav1.5, 5 μmol/L
# T2 construct: ICE Bioscience ICESTP SafetyOne44 Panel
# [3] = biological target: V1a (Homo sapiens, UniProt P37288); details: agonist mode
# [4] = system: 44 clinically safety-related targets
# [5] = biological target: T3, H2 (Homo sapiens, UniProt P25021); test: SafetyOne44 panel: H2; format: cell-based; details: 10 μmol/L
# T3 construct: purchased ICE Bioscience ICESTP™ SafetyOne44 Panel
# [6] = biological target: T4, hERG (Homo sapiens, UniProt Q12809); details: 10 μmol/L, patch-clamp
# [7] = biological target: T5, IKs (Homo sapiens, UniProt P51787); test: SafetyOne44 panel ion channels: IKs; format: cell-based; details: 5 μmol/L
# T5 construct: ICE Bioscience ICESTP SafetyOne44 Panel
# [8] = system: C57BL/6J mice; test: m-CPP-induced anxiety model, elevated plus maze; format: in vivo; details: 10 mg/kg p.o.
# [9] = biological target: TRPM3 (Homo sapiens, UniProt Q9HCF6); test: Patch-clamp selectivity, TRPM3; format: cell-based; details: 10 μmol/L
# [10] = biological target: T6, TRPC5 (Homo sapiens, UniProt Q9UL62); test: Whole-cell patch-clamp, TRPC5, Ca2+-activated condition; format: cell-based; details: read-out: IC50, TRPC5, endogenous Ca2+-evoked activation
# T6 sequence (Q9UL62 1-973): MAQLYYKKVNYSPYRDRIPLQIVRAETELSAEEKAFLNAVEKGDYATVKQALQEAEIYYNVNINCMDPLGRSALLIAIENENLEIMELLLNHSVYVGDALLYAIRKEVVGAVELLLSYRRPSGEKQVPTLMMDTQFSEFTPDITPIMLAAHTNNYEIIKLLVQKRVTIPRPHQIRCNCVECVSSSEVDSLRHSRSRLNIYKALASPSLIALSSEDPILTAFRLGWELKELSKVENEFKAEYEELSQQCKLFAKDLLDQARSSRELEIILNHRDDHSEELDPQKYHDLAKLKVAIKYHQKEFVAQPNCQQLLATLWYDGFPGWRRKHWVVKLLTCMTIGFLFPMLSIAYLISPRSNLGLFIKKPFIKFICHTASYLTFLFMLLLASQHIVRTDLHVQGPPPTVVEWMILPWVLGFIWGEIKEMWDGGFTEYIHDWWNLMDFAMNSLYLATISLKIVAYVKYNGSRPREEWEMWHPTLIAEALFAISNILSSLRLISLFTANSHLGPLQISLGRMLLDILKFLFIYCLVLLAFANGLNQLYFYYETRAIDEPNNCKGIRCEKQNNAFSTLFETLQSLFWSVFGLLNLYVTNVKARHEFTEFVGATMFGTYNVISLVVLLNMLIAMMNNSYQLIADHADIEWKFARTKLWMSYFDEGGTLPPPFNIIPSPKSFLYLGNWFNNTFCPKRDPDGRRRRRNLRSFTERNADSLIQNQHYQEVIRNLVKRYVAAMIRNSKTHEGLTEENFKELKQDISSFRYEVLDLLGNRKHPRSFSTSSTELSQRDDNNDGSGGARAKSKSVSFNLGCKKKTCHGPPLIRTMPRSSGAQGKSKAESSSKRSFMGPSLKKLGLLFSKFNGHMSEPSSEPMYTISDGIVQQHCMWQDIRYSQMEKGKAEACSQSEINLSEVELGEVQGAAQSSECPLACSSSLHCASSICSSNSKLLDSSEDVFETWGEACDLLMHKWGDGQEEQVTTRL
# [11] = in vitro; format: in vitro ADME; details: not told
# Source text: Table 1 Pharmacokinetic properties of JDIC-127. | column: ER; Papp (cm/s)
# [12] = biological target: T7, M3 (Homo sapiens, UniProt P20309); test: cell-based; format: cell-based
# T7 construct: purchased ICE Bioscience ICESTP SafetyOne44 Panel
# [13] = biological target: T6, TRPC5; test: cell-based
# [14] = biological target: T8, PDE3 A (Homo sapiens, UniProt Q14432); test: SafetyOne44 panel: PDE3A; format: biochemical; details: 10 μmol/L, read-out: Antagonist JDIC-127 @10 μmol/L
# T8 construct: purchased ICE Bioscience ICESTP™ SafetyOne44 Panel
# [15] = biological target: T4, hERG; format: cell-based; parameters: purchased ICE Bioscience ICESTP SafetyOne44 Panel
# [16] = biological target: TRPC6 (Homo sapiens, UniProt Q9Y210); test: Patch-clamp selectivity, TRPC6; format: cell-based; details: 1 μmol/L
# [17] = biological target: T9, 5-HT1A (Homo sapiens, UniProt P08908); test: cell-based; format: cell-based
# T9 construct: purchased ICE Bioscience ICESTP SafetyOne44 Panel
# [18] = biological target: T10, A2A (Homo sapiens, UniProt P29274); format: cell-based
# T10 construct: purchased ICE Bioscience ICESTP SafetyOne44 Panel
# [19] = biological target: T11, M1 (Homo sapiens, UniProt P11229); test: cell-based; format: cell-based
# T11 construct: purchased ICE Bioscience ICESTP SafetyOne44 Panel
# [20] = biological target: T12, NET (Homo sapiens, UniProt P23975); test: SafetyOne44 panel: NET; format: cell-based; details: NET, 10 μmol/L; read-out: Antagonist JDIC-127 @10 μmol/L
# T12 construct: ICE Bioscience ICESTP SafetyOne44 Panel
# [21] = biological target: T13, D2 (Homo sapiens, UniProt P14416); test: cell-based; format: cell-based
# T13 construct: purchased ICE Bioscience ICESTP™ SafetyOne44 Panel
# T13 sequence (P14416 whole entry): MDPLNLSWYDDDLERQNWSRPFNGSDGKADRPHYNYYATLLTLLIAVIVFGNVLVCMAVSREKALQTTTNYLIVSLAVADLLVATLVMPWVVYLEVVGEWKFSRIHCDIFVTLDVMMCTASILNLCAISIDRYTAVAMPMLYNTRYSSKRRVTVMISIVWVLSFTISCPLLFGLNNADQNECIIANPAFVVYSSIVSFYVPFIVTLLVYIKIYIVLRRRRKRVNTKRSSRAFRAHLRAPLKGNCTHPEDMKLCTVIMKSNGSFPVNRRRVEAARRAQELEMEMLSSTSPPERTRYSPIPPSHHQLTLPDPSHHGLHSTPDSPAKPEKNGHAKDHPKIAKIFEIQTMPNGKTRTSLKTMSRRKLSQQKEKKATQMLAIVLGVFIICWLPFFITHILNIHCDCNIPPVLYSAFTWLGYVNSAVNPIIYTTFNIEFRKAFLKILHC
# T10 sequence (P29274 whole entry): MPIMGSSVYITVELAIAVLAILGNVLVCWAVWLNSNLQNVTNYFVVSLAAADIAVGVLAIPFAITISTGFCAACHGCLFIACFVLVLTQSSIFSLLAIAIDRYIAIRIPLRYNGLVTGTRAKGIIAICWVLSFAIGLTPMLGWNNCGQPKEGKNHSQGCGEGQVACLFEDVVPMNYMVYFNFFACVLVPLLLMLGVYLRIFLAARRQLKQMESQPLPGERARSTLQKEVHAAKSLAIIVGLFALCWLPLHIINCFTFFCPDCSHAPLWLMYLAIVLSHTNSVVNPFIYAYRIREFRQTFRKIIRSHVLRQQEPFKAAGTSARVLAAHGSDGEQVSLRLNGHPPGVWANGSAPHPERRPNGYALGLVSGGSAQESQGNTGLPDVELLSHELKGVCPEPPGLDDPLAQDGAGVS
# T11 sequence (P11229 whole entry): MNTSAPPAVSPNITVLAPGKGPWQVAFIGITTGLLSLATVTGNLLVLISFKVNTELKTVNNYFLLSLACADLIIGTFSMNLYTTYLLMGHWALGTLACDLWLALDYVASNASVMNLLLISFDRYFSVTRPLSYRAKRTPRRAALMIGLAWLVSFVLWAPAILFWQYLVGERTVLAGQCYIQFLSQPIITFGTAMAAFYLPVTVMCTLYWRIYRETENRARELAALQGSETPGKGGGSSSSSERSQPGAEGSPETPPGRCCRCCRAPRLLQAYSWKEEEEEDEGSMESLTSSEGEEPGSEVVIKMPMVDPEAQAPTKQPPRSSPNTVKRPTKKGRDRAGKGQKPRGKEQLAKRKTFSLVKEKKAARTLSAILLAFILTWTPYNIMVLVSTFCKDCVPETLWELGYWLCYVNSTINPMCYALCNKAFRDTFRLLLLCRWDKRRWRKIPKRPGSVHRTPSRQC
# T7 sequence (P20309 whole entry): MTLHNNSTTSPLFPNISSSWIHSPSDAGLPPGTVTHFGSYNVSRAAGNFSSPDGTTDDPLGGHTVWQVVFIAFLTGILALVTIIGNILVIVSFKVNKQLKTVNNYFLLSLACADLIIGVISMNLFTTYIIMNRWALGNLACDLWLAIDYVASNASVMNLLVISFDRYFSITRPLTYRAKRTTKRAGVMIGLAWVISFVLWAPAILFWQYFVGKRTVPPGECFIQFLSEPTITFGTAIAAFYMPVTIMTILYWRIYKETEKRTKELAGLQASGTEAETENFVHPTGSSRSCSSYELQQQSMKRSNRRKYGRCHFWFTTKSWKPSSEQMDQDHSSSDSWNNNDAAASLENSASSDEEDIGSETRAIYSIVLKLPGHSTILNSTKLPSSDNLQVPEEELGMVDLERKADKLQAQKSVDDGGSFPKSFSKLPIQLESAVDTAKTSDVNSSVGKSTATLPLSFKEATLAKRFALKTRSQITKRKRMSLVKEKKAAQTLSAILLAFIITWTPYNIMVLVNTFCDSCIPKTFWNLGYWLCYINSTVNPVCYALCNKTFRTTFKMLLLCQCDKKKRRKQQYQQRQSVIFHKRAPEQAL
# T1 sequence (P21728 whole entry): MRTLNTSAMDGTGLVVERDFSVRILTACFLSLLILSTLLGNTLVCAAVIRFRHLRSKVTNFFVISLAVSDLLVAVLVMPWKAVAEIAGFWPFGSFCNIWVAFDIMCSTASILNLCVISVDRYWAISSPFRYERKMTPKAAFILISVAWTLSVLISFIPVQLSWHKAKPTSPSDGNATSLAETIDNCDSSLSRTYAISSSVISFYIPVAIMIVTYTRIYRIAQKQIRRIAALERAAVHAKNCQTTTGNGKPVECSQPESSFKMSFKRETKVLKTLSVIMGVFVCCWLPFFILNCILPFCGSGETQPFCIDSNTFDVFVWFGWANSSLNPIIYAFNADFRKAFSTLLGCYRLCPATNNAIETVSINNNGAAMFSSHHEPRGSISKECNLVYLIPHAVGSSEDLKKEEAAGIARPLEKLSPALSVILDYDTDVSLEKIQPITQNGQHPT
# T3 sequence (P25021 whole entry): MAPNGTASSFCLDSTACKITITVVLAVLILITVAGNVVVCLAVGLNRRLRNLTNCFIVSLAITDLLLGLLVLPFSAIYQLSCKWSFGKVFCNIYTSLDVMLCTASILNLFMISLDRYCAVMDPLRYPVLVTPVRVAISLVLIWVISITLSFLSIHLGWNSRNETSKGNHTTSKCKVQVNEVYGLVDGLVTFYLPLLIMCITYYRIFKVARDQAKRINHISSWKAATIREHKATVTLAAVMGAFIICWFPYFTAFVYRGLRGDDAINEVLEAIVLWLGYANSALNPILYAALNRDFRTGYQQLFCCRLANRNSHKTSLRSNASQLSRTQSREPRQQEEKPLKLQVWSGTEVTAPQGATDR
# T4 sequence (Q12809 whole entry): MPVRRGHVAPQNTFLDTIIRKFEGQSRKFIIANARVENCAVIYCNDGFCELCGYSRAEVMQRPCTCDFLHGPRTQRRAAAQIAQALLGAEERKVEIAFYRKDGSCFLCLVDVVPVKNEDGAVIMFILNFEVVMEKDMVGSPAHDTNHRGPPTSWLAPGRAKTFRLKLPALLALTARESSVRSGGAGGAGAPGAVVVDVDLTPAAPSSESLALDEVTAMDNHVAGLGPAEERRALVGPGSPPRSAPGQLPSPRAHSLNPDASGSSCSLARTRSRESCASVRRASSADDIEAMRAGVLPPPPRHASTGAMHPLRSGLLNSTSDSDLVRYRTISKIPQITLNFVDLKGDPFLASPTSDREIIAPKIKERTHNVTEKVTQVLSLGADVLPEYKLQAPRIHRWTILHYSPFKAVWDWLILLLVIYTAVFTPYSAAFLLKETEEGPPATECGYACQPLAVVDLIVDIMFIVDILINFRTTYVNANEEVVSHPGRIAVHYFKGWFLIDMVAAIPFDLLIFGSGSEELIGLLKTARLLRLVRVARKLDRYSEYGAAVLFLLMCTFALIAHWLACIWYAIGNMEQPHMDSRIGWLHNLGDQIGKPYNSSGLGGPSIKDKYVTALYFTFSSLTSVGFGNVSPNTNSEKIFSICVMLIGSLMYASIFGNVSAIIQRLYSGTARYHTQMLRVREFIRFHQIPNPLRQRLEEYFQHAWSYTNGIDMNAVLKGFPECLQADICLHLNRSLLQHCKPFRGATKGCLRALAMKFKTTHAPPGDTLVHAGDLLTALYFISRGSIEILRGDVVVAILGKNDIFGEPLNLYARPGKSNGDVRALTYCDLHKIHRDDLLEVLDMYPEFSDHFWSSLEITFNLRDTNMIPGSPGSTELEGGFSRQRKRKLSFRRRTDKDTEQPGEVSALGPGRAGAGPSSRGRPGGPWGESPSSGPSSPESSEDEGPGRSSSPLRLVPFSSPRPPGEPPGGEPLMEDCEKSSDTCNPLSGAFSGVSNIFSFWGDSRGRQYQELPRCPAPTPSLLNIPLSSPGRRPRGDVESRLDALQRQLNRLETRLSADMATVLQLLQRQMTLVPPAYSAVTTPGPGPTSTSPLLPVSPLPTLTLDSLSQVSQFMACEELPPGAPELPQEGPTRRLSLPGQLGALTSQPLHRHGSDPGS
# T9 sequence (P08908 whole entry): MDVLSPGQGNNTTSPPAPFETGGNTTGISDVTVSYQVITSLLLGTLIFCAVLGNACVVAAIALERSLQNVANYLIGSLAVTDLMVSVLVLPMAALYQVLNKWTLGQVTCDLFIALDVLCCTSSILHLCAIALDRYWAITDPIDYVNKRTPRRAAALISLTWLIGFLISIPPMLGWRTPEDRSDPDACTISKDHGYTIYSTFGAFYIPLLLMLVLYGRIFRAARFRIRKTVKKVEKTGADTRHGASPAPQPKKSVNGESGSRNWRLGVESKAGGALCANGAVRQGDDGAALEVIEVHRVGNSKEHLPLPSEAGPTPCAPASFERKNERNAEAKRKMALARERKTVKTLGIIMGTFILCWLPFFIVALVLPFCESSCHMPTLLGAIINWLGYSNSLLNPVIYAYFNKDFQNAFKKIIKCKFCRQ
# T12 sequence (P23975 whole entry): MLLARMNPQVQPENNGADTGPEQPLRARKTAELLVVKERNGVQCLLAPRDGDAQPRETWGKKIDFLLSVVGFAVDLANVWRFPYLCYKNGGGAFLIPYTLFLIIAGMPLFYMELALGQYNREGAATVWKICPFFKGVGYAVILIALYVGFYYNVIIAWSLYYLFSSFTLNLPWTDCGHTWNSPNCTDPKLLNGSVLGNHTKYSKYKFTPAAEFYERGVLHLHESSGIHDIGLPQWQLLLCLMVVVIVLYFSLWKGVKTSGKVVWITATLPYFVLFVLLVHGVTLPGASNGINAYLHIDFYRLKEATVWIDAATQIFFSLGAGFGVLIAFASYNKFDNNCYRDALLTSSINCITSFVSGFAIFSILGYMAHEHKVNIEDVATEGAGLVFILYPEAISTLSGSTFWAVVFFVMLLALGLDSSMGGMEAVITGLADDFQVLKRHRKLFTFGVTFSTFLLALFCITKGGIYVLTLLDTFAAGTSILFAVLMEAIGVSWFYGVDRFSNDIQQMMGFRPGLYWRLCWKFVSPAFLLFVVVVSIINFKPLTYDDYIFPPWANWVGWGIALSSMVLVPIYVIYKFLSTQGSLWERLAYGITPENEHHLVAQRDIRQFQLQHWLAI
smiles,measurement,setting,value
O=c1c2c3nc(n2Cc2ccc(Cl)cc2)Oc2ccc(F)c(c2)OCCCCCCn3c(=O)n1CCCO [JDIC-127],Agonist JDIC-127 @10 μmol/L,"[1]; D1, agonist mode",–1.54%
same,inhibition at 10 µM,"[1]; D1, antagonist mode, 10 μmol/L, read-out: Antagonist JDIC-127 @10 μmol/L",8.89%
same,Antagonist JDIC-127 @5 μmol/L,[2],2.98%
same,Agonist JDIC-127 @10 μmol/L,[3],–7.01%
same,effect on the 44 safety targets,[4],no significant inhibitory or stimulatory effects
same,Agonist JDIC-127 @10 μmol/L,"[5]; H2, agonist mode",–6.71%
same,inhibition at 10 µM,"[5]; H2, antagonist mode, read-out: Antagonist JDIC-127 @10 μmol/L",5.6%
same,inhibition of hERG activity,[6],less than 33%
same,Antagonist JDIC-127 @5 μmol/L,[7],22.77%
same,"percentage of entries into the open arms, EPM",[8],significantly increased
same,inhibition at 10 µM,[9],< 33%
same,IC50,[10],0.0014 nM
same,ER,[11],1.45
same,Papp,[11],1.51 ×10⁻⁶ cm/s
same,Agonist JDIC-127 @10 μmol/L,"[12]; M3, agonist mode",0.99%
same,inhibition at 10 µM,"[12]; M3, antagonist mode, 10 μmol/L, read-out: Antagonist JDIC-127 @10 μmol/L",-1.46%
same,IC50,"[13]; HEK293T, 100 nmol/L Englerin A, read-out: IC50, inhibition of TRPC5, calcium flux assay",0.066 nM
same,inhibition of TRPC5 calcium influx,[13]; at concentrations of 1.4 nmol/L or higher,More than 80%
same,fold increase in activity (vs compound 6),"[13]; calcium flux, SAR",approximately 15 fold
same,inhibition at 10 µM,[14],2.27%
same,Antagonist JDIC-127 @5 μmol/L,[15],19.40%
same,inhibition at 1 µM,[16],< 20%
same,Agonist JDIC-127 @10 μmol/L,[17]; agonist mode,–1.59%
same,inhibition at 10 µM,"[17]; antagonist mode, 10 μmol/L, read-out: Antagonist JDIC-127 @10 μmol/L",-6.7%
same,Agonist JDIC-127 @10 μmol/L,[18]; agonist mode,–1.55%
same,Antagonist JDIC-127 @10 μmol/L,[18]; antagonist mode,–2.78%
same,Agonist JDIC-127 @10 μmol/L,"[19]; M1, agonist mode",–0.83%
same,inhibition at 10 µM,"[19]; M1, antagonist mode, 10 μmol/L, read-out: Antagonist JDIC-127 @10 μmol/L",0.22%
same,inhibition at 10 µM,[20],-5.84%
same,Cbr,"i.v., 2 mg/kg, 2 min",407.01 nmol/kg
same,Cpl,"i.v., 2 mg/kg, 2 min",367.10 nmol/L
same,Cbr,"i.v., 2 mg/kg, 45 min",198.65 nmol/kg
same,Cpl,"i.v., 2 mg/kg, 45 min",51.63 nmol/L
same,Cbr,"i.v., 2 mg/kg, 180 min",74.96 nmol/kg
same,Cpl,"i.v., 2 mg/kg, 180 min",10.12 nmol/L
same,Cbr,"p.o., 10 mg/kg, 2 min",22.16 nmol/kg
same,Cpl,"p.o., 10 mg/kg, 2 min",6.36 nmol/L
same,Cbr,"p.o., 10 mg/kg, 45 min",223.33 nmol/kg
same,Cpl,"p.o., 10 mg/kg, 45 min",88.83 nmol/L
same,Cbr,"p.o., 10 mg/kg, 180 min",7.35 nmol/kg
same,Cpl,"p.o., 10 mg/kg, 180 min",22.96 nmol/L
same,Agonist JDIC-127 @10 μmol/L,"[21]; D2, agonist mode",–9.18%
same,inhibition at 10 µM,"[21]; D2, antagonist mode, 10 μmol/L, read-out: Antagonist JDIC-127 @10 μmol/L",-1.55%

# From PMC12827894, “Structure-guided design of picomolar-level macrocyclic TRPC5 channel inhibitors with antidepressant activity” (Acta Pharmaceutica Sinica. B, 2025)
